Test results from patent US9370510B2, “Small molecule compounds to treat hearing loss” (FATE THERAPEUTICS, INC., priority 2012, dated 2016).

Tests used:
Format in all cases: cell-based, rat
[1] = system: hair cell-damaged cochlea/modiolus explants; experiment: proliferating supporting cells (BrdU+/Sox2+) in hair cell-damaged cochlea/modiolus explants, confocal microscopy; settings: three days, after 1 mM tobramycin for three days
Experimental: Postnatal day 5 rat cochlea cochlea/modiolus explants were collected and cultured with 1 mM tobramycin for three days to kill hair cells. Cultures were then treated for three days with DMSO, 3 uM bromo benzyl ellipticinium, 60 uM CHIR99021, or both. Tissues were fixed with 4% paraformaldehyde, and cochlea were removed from surrounding tissue and immunostained with anti-SOX2 and anti-BrdU antibodies. Whole mount confocal microscopy was used to identify proliferating supporting cells (Brdu+/Sox2+) counted in 300 um of the basal-most cochlea. Cochlea were analyzed in triplicates per treatment group.

[2] = system: hair cell-damaged cochlear explants; experiment: cell proliferation (phosphorylated Histone H3) in hair cell-damaged cochlear explants by western blot; settings: 3 uM, 24 hours, after 1 mM tobramycin for two days, vs vehicle (DMSO) (FIG. 4)
Experimental: (§1) Postnatal day 5 rat cochlea were collected and cultured with 1 mM tobramycin for two days to kill hair cells. Cultures were then treated with 3 uM bromo benzyl ellipticinium dissolved in DMSO or DMSO alone (negative control) for 24 hours.
(§2) Cochlear explant extracts were analyzed by western blotting. Detergent-solubilized extracts were electrophoresed on a polyacrylamide gel, and the separated denatured proteins transferred to a PVDF membrane. Antibodies to p27, p57, phosphorylated Histone H3, phosphorylated p130 and the house-keeping gene, β-actin were used with infrared dye-conjugated secondary antibodies and quantified by fluorescence. Levels of p27, p57, phosphorylated Histone H3, and phosphorylated p130 were normalized to the beta-actin signal before comparing treated and control samples.

p27 = p27 protein levels in hair cell-damaged (tobramycin) cochlear explants by western blot; settings: 3 uM, 24 hours, after 1 mM tobramycin for two days, vs vehicle (DMSO) (FIG. 4)
Experimental: as §1, §2

SMILES	BrdU+/Sox2+ ells/300 μm of Basal Cochlea (Mean ± SD, n = 3) ([1]; 60 μM) [ells/300 μm]	BrdU+/Sox2+ ells/300 μm of Basal Cochlea (Mean ± SD, n = 3) ([1]; 3 μM) [ells/300 μm]	cell proliferation [2]	p27 protein levels (p27)
Cc1c[nH]c(-c2cnc(NCCNc3ccc(C#N)cn3)nc2-c2ccc(Cl)cc2Cl)n1 [CHIR99021, reference compound]	0 ± 0			
Cc1c2cc[n+](Cc3ccccc3)cc2c(C)c2c1[nH]c1ccccc12 [bromo benzyl ellipticinium, Bromo Benzyl Ellipticinium]		0 ± 0	increased	reduced
